Here are results for seven compounds from ChEMBL document CHEMBL1146583, “Acetylenic acids inhibiting azole-resistant Candida albicans from Pentagonia gigantifolia” (J Nat Prod, 2003).

By IC50 is commonly meant the midpoint of a concentration-inhibition curve. The IC80 is the concentration at which the effect reaches the 80% level. By MIC is commonly meant the lowest concentration that inhibits growth of the organism.

For series [1], the system named is Candida albicans. Nature of the series: Antifungal activity against Candida albicans ATCC 90028 after 24 to 48 hrs by NCCLS method. The class given is functional, organism-based.
Series [2] concerns Candida albicans. Nature of the series: Antifungal activity against fluconazole-resistant Candida albicans isolate 5 after 24 to 48 hrs by NCCLS method. To be noted: for IC50 / IC80: Candida albicans. It counts as functional, organism-based.
The subject of series [3] is Candida albicans. Nature of the series: Antifungal activity against fluconazole-resistant Candida albicans isolate 8 after 24 to 48 hrs by NCCLS method. The class given is functional, organism-based. To be noted: for IC50 / IC80: Candida albicans.
For series [4], the system named is Candida albicans. Nature of the series: Antifungal activity against Candida albicans ATCC 90028 by sphingolipid reversal assay in presence of 2.5 ug/mL dihydrosphingosine. The class given is functional, organism-based.
Series [5] relates to Candida albicans. Nature of the series: Antifungal activity against fluconazole-resistant Candida albicans isolate 17 after 24 to 48 hrs by NCCLS method. It counts as functional, organism-based. Particulars: for IC50 / IC80: Candida albicans.
Series [6] deals with Vero. Nature of the series: Cytotoxicity against african green monkey Vero cells at 10 ug/mL. It counts as cell-based. Particulars: chlorocebus sabaeus.
Series [7] deals with Candida albicans. The experiment in a line: Antifungal activity against fluconazole-resistant Candida albicans isolate 2 after 24 to 48 hrs by NCCLS method. Particulars: for IC50 / IC80: Candida albicans. It counts as functional, organism-based.
In series [8] the test system is Candida albicans. The experiment in a line: Antifungal activity against Candida albicans ATCC 90028 by sphingolipid reversal assay in presence of 15 ug/mL stearylamine. The class given is functional, organism-based.
Series [9] relates to Candida albicans. The experiment in a line: Antifungal activity against Candida albicans ATCC 90028 by sphingolipid reversal assay in presence of 1.25 ug/mL dihydrosphingosine. The class given is functional, organism-based.
Series [10] concerns SK-MEL. The experiment in a line: Cytotoxicity against human SK-MEL cells at 10 ug/mL. It counts as functional, cell-based.
The subject of series [11] is Candida albicans. Nature of the series: Antifungal activity against Candida albicans ATCC 90028 by sphingolipid reversal assay in presence of 5.0 ug/mL dihydrosphingosine. The class given is functional, organism-based.
In series [12] the test system is Candida albicans. Nature of the series: Antifungal activity against Candida albicans ATCC 90028 by sphingolipid reversal assay in presence of 30 ug/mL stearylamine. The class given is functional, organism-based.
Series [13] concerns BT-549. Nature of the series: Cytotoxicity against human BT549 cells at 10 ug/mL. It counts as functional, cell-based.
In series [14] the test system is SK-OV-3. The experiment in a line: Cytotoxicity against human SKOV3 cells at 10 ug/mL. The class given is functional, cell-based.
In series [15] the test system is Candida albicans. The experiment in a line: Antifungal activity against fluconazole-susceptible Candida albicans isolate 1 after 24 to 48 hrs by NCCLS method. To be noted: for IC50 / IC80: Candida albicans. It counts as functional, organism-based.
For series [16], the system named is KB. The experiment in a line: Cytotoxicity against human KB cells at 10 ug/mL. The class given is functional, cell-based.
For series [17], the system named is Candida albicans. Nature of the series: Antifungal activity against Candida albicans ATCC 90028 by sphingolipid reversal assay in presence of 5 ug/mL stearylamine. The class given is functional, organism-based.
In series [18] the test system is Candida albicans. The experiment in a line: Antifungal activity against fluconazole-resistant Candida albicans isolate 17 at 100 ug/mL after 24 to 48 hrs by NCCLS method. It counts as functional, organism-based.

The structures appear in SMILES notation. In brackets after ≈: the same amount, converted by molar mass. Activity calls are given as the source filed them. The calls are words filed in the database; no cut-off is given here.

For the compound `CCCCCCCCCCCC#CCCCCC(=O)OC`, the result in [1] was inactive.

For `CCCCCCCCCCCCC#CCCCCC(=O)OC`, the result in [1] was inactive.

For `CCCCCCCCCCCCC#CCCCCC(=O)O` [6-NONADECYNOIC ACID], the Fungicidal in [2] was determined as 0.8 µg/mL; in [3], 0.8 µg/mL; in series [5] it was 0.7 µg/mL; in series [7], 0.35 µg/mL; in [15] it was 0.45 µg/mL. Further, the IC50 came out at 0.45 mg/L (≈ 1.53 µM) in series [2]; 0.5 mg/L (≈ 1.7 µM) in series [3]; 0.33 mg/L (≈ 1.12 µM) in series [1]; 2 mg/L in [4]; 0.45 mg/L (≈ 1.53 µM) in series [5]; 0.25 mg/L (≈ 0.849 µM) in series [7]. Further, the IC50 in series [8] came out at 15 mg/L; in series [9], 1 mg/L; in series [11], 4.5 mg/L; in [12] it was 35 mg/L; in series [15], 0.25 mg/L (≈ 0.849 µM); in series [17], 5 mg/L. Besides, the IC80 in series [2] came out at 0.6 mg/L (≈ 2.04 µM); in [3], 0.65 mg/L (≈ 2.21 µM); in series [5] it was 0.6 mg/L (≈ 2.04 µM); in series [7] it was 0.3 mg/L (≈ 1.02 µM); in [15] it was 0.35 mg/L (≈ 1.19 µM). Also, it took 0.52 mg/L (≈ 1.77 µM) to inhibit growth in series [1] (MIC). Besides, the Activity entry in series [6] is recorded as “Not Active”. Further, the result in [10], in [13], in series [14] and in series [16] was inactive.

As to `CCCCCCCCCCCC#CCCCCC(=O)O` [6-OCTADECYNOIC ACID], the Fungicidal was found to be 2 µg/mL in [2]; 1.5 µg/mL in series [3]; 1.5 µg/mL in series [5]; 0.75 µg/mL in [7]; 0.7 µg/mL in [15]. Further, the IC50 in [2] was determined as 0.7 mg/L (≈ 2.5 µM); in series [3], 0.9 mg/L (≈ 3.21 µM); in series [1], 0.38 mg/L (≈ 1.35 µM); in [4], 2 mg/L; in series [5] it was 0.65 mg/L (≈ 2.32 µM); in series [7], 0.5 mg/L (≈ 1.78 µM). Also, the half-inhibitory concentration (IC50) came to 15 mg/L in series [8]; 0.7 mg/L in series [9]; 4.5 mg/L in series [11]; 30 mg/L in series [12]; 0.45 mg/L (≈ 1.6 µM) in series [15]; 3.5 mg/L in series [17]. In addition, the IC80 came out at 1 mg/L (≈ 3.57 µM) in [2]; 1 mg/L (≈ 3.57 µM) in [3]; 1 mg/L (≈ 3.57 µM) in [5]; 0.65 mg/L (≈ 2.32 µM) in series [7]; 0.6 mg/L (≈ 2.14 µM) in series [15]. Moreover, in series [1], the MIC amounted to 1.04 mg/L (≈ 3.71 µM). The Activity entry in [6] is “Not Active”. Also, the result in series [10], in series [13], in series [14] and in [16] was inactive.

`C[C@@H]1[C@H](O)[C@@H](C)/C=C/C=C/C=C/C=C/C=C/C=C/C=C/[C@H](O[C@@H]2O[C@H](C)[C@@H](O)[C@H](N)[C@@H]2O)C[C@@H]2O[C@](O)(C[C@@H](O)C[C@@H](O)[C@H](O)CC[C@@H](O)C[C@@H](O)CC(=O)O[C@H]1C)C[C@H](O)[C@H]2C(=O)O` [AMPHOTERICIN B]: the values for the 50% inhibitory concentration (IC50) in [1], in series [8] and in series [12] were 0.23 mg/L (≈ 0.249 µM), 0.4 mg/L and 0.65 mg/L, respectively. The compound also yielded an MIC in [1] of 0.52 mg/L (≈ 0.563 µM).

Turning to `OC(Cn1cncn1)(Cn1cncn1)c1ccc(F)cc1F` [FLUCONAZOLE], the Fungicidal came to 10 µg/mL in [2], 25 µg/mL in [3], 10 µg/mL in [7] and 2 µg/mL in series [15]. Further, the IC50 in series [2] stood at 7.5 mg/L (≈ 24.5 µM); in series [3], 15 mg/L (≈ 49 µM); in series [4] it was 0.5 mg/L; in series [5], 40 mg/L (≈ 131 µM); in series [7], 1 mg/L (≈ 3.27 µM); in [8], 0.8 mg/L. Besides, the IC50 amounted to 0.3 mg/L in [9], 0.7 mg/L in [11], 0.75 mg/L in series [12] and 0.65 mg/L in series [17]. Besides, the IC80 in series [2] stood at 10 mg/L (≈ 32.7 µM); in series [3], 20 mg/L (≈ 65.3 µM); in [5], 95 mg/L (≈ 310 µM); in series [7] it was 5 mg/L (≈ 16.3 µM); in series [15], 0.2 mg/L (≈ 0.653 µM). The same compound came in with an MIC in [1] of 0.29 mg/L (≈ 0.947 µM). Also, the result in series [18] was inactive.

On to `Nc1nc(=O)[nH]cc1F` [FLUCYTOSINE], for which the IC50 in [1] amounted to 0.47 mg/L (≈ 3.64 µM); in [4], 0.15 mg/L; in series [8] it was 0.2 mg/L; in series [9] it was 0.2 mg/L; in [11], 0.1 mg/L; in series [12] it was 0.25 mg/L. Besides, the half-inhibitory concentration (IC50) in series [17] was determined as 0.25 mg/L. In addition, the minimal inhibitory concentration (MIC) in series [1] amounted to 1.04 mg/L (≈ 8.06 µM).
